Reference: US20210346357A1 (priority 2020, published 2021)
Read-outs that look alike come from different tables or passages of the source.

Key:
[1] = test system: IL-2 stimulated pSTAT5 in Tall-1 T cells (JAK1/3); assay: Inhibition of IL-2 stimulated pSTAT5 in Tall-1 T cells; assay type: cell-based; conditions: Homo sapiens, IL-2 300 ng/mL, AlphaLisa pSTAT5, read-out: Tall-1 pIC50 (converted)
Experimental: Assay 2: Inhibition of IL-2 Stimulated pSTAT5 in Tall-1 T Cells
The potency of test compounds for inhibition of interleukin-2 (IL-2) stimulated STATS phosphorylation was measured in the Tall-1 human T cell line (DSMZ) using AlphaLisa. Because IL-2 signals through JAK1/3, this assay provides a measure of JAK1/3 cellular potency.
Phosphorylated STATS was measured via the AlphaLISA SureFire Ultra pSTAT5 (Tyr694/699) kit (PerkinElmer).
Human T cells from the Tall-1 cell line were cultured in a 37° C., 5% CO2 humidified incubator in RPMI (Life Technologies) supplemented with 15% Heat Inactivated Fetal Bovine Serum (FBS, Life Technologies), 2mM Glutamax (Life Technologies), 25 mM HEPES (Life Technologies) and 1X Pen/Strep (Life Technologies). […] Phosphorylated STATS was measured via the pSTAT5 AlphaLisa kit (PerkinElmer). […] Luminescence was measured with excitation at 689 nm and emission at […] using an EnVision plate reader (PerkinElmer) under green filtered <100 lux light.
To determine the inhibitory potency of test compounds in response to IL-2, the average emission intensity of beads bound to pSTAT5 was measured in a human T cell line. IC50 values were determined from analysis of the inhibition curves of signal intensity versus compound concentration. Data are expressed as pIC50 (negative decadic logarithm IC50) values (mean±standard deviation).

[2] = test system: TSLP-evoked TARC release in human peripheral blood mononuclear cells; assay: Inhibition of TSLP-evoked TARC release in human PBMC; assay type: cell-based; conditions: PBMC from 3 to 5 donors, TSLP 10 ng/mL, 48 hours, read-out: pIC50 ± st. dev., inhibition of TSLP-evoked TARC release (converted)
Abl1 = Abl1 (Homo sapiens, UniProt P00519); assay: Biochemical ABL1 kinase assay (33P-ATP); conditions: at 1 μM; ATP 10 μM
[3] = Phase 1 SAD/MAD study of inhaled compound 1 in healthy subjects; assay type: in vivo, human; conditions: for AUC(0-t): read-out: AUC0-24
Experimental: This is a phase 1, 2-part, double-blind, randomized, placebo controlled, sponsor-open, SAD (Part A) and MAD (Part B). Subjects will participate in only 1 cohort in only 1 study part.
Part A (SAD): three (3) cohorts of 8 healthy subjects (6 active and 2 placebo). In each cohort, subjects received a single inhaled dose of compound 1 or placebo. […] Cardiodynamic monitoring via Holter monitors was conducted pre-dose and for at least 24 hours following dosing on Day 1 in each cohort, with rest periods for cardiodynamic electrocardiogram (ECG) extractions time matched to the PK sampling time points.
Part B (MAD): three (3) cohorts of 10 healthy subjects (8 active and 2 placebo). In each cohort, subjects received inhaled doses once daily (QD) for 7 days. […] Blood samples for PK assessment were also collected pre-dose on the morning of Days 3 through 6. Cardiodynamic monitoring via Holter monitors may be conducted pre-dose on Day 1 and pre-dose and for at least 24 hours following dosing on the morning of Day 7 in each cohort with rest periods for cardiodynamic ECG extractions time matched to the PK sampling time points.
Parts A and B: safety (i.e., physical examinations, vital signs, 12-lead safety ECGs, spirometry, clinical laboratory tests, and adverse events [AEs]) were assessed throughout the study; blood and urine samples were collected for safety assessments. All subjects who received at least one dose of study drug (including subjects who terminated the study early) returned to the CRU 7 (±2) days after the last study drug administration for follow-up procedures, and to determine if any AEs have occurred since the last study visit.
Part B: subjects received inhaled doses QD for 7 days using a nebulizer device.
Morning doses on Days 1 and 7 were administered under fasting conditions due to cardiodynamic monitoring. On all other times, doses were administered at least 30 minutes after completion of a meal or snack. Hour 0 was defined as the beginning of inhalation in each morning dose administration.
AUC0-24, AUC0-∞, Cmax and t1/2 are presented as arithmetic mean (standard deviation). Tmax is presented as median (minimum, maximum).

[4] = test system: IL-13-induced STAT6 phosphorylation in the human bronchial epithelial cell line BEAS-2B; assay: IL-13-induced STAT6 phosphorylation in BEAS-2B cells; assay type: cell-based
[5] = healthy subjects, 1 mg to 10 mg
[6] = human, plasma, inhaled or intranasal, 1 mg, healthy subjects, inhaled 1 mg QD, Day 1, mean
[7] = human, plasma, inhaled or intranasal, 1 mg, healthy subjects, inhaled 1 mg QD, Day 7, mean
[8] = human, plasma, inhaled or intranasal, 1 mg, healthy subjects, single inhaled dose 1 mg, mean
[9] = human, plasma, inhaled or intranasal, 3 mg, healthy subjects, inhaled 3 mg QD, Day 1, mean
[10] = human, plasma, inhaled or intranasal, 3 mg, healthy subjects, inhaled 3 mg QD, Day 7, mean
[11] = human, plasma, inhaled or intranasal, 3 mg, healthy subjects, single inhaled dose 3 mg, mean
[12] = human, plasma, inhaled or intranasal, 10 mg, healthy subjects, inhaled 10 mg QD, Day 1, mean
[13] = human, plasma, inhaled or intranasal, 10 mg, healthy subjects, inhaled 10 mg QD, Day 7, mean
[14] = human, plasma, inhaled or intranasal, 10 mg, healthy subjects, single inhaled dose 10 mg, mean

Chain of Abl1 (P00519 whole entry): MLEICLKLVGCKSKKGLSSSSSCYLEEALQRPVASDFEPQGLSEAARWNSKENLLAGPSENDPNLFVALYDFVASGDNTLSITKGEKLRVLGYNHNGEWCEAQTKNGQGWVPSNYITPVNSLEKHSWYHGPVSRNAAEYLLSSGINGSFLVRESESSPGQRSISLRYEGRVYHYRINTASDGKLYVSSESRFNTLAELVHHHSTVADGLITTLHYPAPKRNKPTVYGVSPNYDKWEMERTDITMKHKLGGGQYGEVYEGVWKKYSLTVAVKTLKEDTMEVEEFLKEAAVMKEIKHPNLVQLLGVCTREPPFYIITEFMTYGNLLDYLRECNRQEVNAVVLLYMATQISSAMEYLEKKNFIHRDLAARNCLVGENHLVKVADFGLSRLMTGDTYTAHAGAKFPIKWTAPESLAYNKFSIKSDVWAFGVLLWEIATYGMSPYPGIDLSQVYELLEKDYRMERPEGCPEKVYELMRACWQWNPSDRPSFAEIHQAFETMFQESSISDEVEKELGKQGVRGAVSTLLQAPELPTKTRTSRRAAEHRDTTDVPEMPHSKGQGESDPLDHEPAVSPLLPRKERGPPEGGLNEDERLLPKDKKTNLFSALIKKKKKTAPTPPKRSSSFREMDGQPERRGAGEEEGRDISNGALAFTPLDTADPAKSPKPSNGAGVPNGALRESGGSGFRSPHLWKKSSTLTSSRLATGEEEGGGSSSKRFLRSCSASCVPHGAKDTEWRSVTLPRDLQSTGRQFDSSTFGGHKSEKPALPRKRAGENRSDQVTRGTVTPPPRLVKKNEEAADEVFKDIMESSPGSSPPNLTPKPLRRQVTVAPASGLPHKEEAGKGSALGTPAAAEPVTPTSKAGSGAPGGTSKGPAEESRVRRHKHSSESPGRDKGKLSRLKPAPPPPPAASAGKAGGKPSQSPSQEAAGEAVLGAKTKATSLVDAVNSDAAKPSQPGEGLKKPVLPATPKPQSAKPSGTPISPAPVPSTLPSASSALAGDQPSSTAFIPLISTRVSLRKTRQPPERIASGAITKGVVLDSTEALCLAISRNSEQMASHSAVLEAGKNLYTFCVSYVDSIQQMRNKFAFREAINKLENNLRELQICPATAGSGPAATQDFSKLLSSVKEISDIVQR

## CCc1cc(O)ccc1-c1ccc2c(-c3nc4c([nH]3)CN(C(C)C)[C@H](C(=O)N3CC(N(C)C)C3)C4)n[nH]c2c1 [Compound 1, (S)-(3-(dimethylamino)azetidin-1-yl)(2-(6-(2-ethyl-4-hydroxyphenyl)-1H-indazol-3-yl)-5-isopropyl-4,5,6,7-tetrahydro-3H-imidazo[4,5-c]pyridin-6-yl)methanone]
[1]
  IC50: 2.51 nM
[2]
  IC50: 63.1 nM
Abl1
  inhibition at 1 µM: 90%
[3]; [5]
  changes in laboratory parameters, vital signs, or ECGs: no clinically relevant changes
  severity of adverse events: mild or moderate
[3]; healthy subjects, inhaled 1 mg QD, Day 1, median
  Tmax: 1.0 h
[3]; healthy subjects, inhaled 1 mg QD, Day 7, median
  Tmax: 1.0 h
[3]; healthy subjects, inhaled 3 mg QD, Day 1, median
  Tmax: 1.0 h
[3]; healthy subjects, inhaled 3 mg QD, Day 7, median
  Tmax: 1.0 h
[3]; healthy subjects, inhaled 10 mg QD, Day 1, median
  Tmax: 1.0 h
[3]; healthy subjects, inhaled 10 mg QD, Day 7, median
  Tmax: 1.0 h
[3]; healthy subjects, single daily doses 1 mg to 10 mg for 7 days
  tolerability: well tolerated
[3]; healthy subjects, single inhaled dose 3 mg, mean
  t1/2: 24.73 h
[3]; [6]
  Cmax: 5.33 ng/mL
  AUC(0-t): 18.4 ng·h/mL
[3]; [7]
  Cmax: 5.7 ng/mL
  AUC(0-t): 21.6 ng·h/mL
[3]; [8]
  Cmax: 5.72 ng/mL
  AUC(0-t): 18.5 ng·h/mL
[3]; human, plasma, inhaled or intranasal, 1 mg, healthy subjects, single inhaled dose 1 mg, mean, read-out: t1/2 (converted)
  half-life: 19.3 h
[3]; [9]
  Cmax: 17.8 ng/mL
  AUC(0-t): 48.1 ng·h/mL
[3]; [10]
  Cmax: 18.2 ng/mL
  AUC(0-t): 52.3 ng·h/mL
[3]; [11]
  Cmax: 14.1 ng/mL
  AUC(0-t): 43.3 ng·h/mL
[3]; human, plasma, inhaled or intranasal, 3 mg, healthy subjects, single inhaled dose 3 mg, mean, read-out: t1/2 (converted)
  half-life: 24.7 h
[3]; [12]
  Cmax: 54.6 ng/mL
  AUC(0-t): 191 ng·h/mL
[3]; [13]
  Cmax: 53.6 ng/mL
  AUC(0-t): 204 ng·h/mL
[3]; [14]
  Cmax: 50.9 ng/mL
  AUC(0-t): 153 ng·h/mL
[3]; human, plasma, inhaled or intranasal, 10 mg, healthy subjects, single inhaled dose 10 mg, mean, read-out: t1/2 (converted)
  half-life: 23.1 h
[3]; human, plasma, inhaled or intranasal, healthy subjects, following single and multiple inhaled doses, read-out: Tmax
  Tmax: ~1 h
[3]; human, plasma, inhaled or intranasal, healthy subjects, following single and multiple inhaled doses, read-out: terminal elimination half-life (converted)
  half-life: ~24 h
[3]; human, plasma, inhaled or intranasal, healthy subjects, single inhaled dose 1 mg, mean
  AUC(0-inf): 20.7 ng·h/mL
[3]; human, plasma, inhaled or intranasal, healthy subjects, single inhaled dose 1 mg, median, read-out: Tmax
  Tmax: 1 h
[3]; human, plasma, inhaled or intranasal, healthy subjects, single inhaled dose 3 mg, mean
  AUC(0-inf): 48.6 ng·h/mL
[3]; human, plasma, inhaled or intranasal, healthy subjects, single inhaled dose 3 mg, median, read-out: Tmax
  Tmax: 1 h
[3]; human, plasma, inhaled or intranasal, healthy subjects, single inhaled dose 10 mg, mean
  AUC(0-inf): 169 ng·h/mL
[3]; human, plasma, inhaled or intranasal, healthy subjects, single inhaled dose 10 mg, median, read-out: Tmax
  Tmax: 1 h
[3]; inhaled administration
  neutrophil and hemoglobin reductions, lipid changes: not observed
[4]; JAK IC50 divided by the fraction unbound, read-out: binding-corrected JAK IC50
  IC50: 0.362 µg/mL
[4]; obtained from pIC50 of 7.9, based on a MW of 545.7, read-out: JAK IC50
  IC50: 0.0069 µg/mL
[4]; read-out: pIC50 for IL-13-induced STAT6 phosphorylation (converted)
  IC50: 12.6 nM
